# Test system: H3K9me3
# Assay: Immunostaining of H3K9me3 in SCNT embryos
# Format: cell-based, mouse
# Settings: mRNA injected at 5 hpa; cumulus donor cells
# Method: Somatic cell nuclear transfer was carried out as described previously (Matoba et al., 2011). Briefly, recipient MII oocytes were collected from superovulated adult BDF1 females by brief treatment with 300 U/ml bovine testicular hyaluronidase (Calbiochem). Isolated MII oocytes were enucleated in Hepes-buffered KSOM medium containing 7.5 μg/ml of cytochalasin B (Calbiochem #250233). The nuclei of donor cumulus cells or Sertoli cells were injected into the enucleated oocytes using a Piezo-driven micromanipulator (Primetech #PMM-150FU). MEF cells were fused with enucleated oocytes by inactivated Sendai virus envelope (HVJ-E; Ishihara Sangyo, Japan). After 1 h incubation in KSOM, reconstructed SCNT oocytes were activated by incubation in Ca-free KSOM containing 5 μg/ml cytochalasin B for 1 h and further cultured in KSOM with cytochalasin B for 4 h. Activated SCNT embryos were washed 5 h after the onset of SrCl2 treatment (hours post activation, hpa) and cultured in KSOM in a humidified atmosphere of 5% CO2 at 37.8° C. In some experiments, SCNT embryos were injected with ˜10 pl of water (control), 1800 ng/μl wild-type or mutant (H189A) Kdm4d mRNA at 5-6 hpa by using a Piezo-driven micromanipulator (Primetech). […] Preimplantation developmental rates were statistically analyzed by Student's T-test. […]
substance,measurement,value
"Kdm4d WT mRNA: in vitro transcribed full length mouse Kdm4d mRNA, encoding an H3K9me3-specific histone demethylase",reduction of H3K9me3 levels in SCNT embryos (in words),greatly reduced H3K9me3 levels
